In data set [1] the target is T1, Peroxisome proliferator-activated receptor delta (Mus musculus, UniProt P35396).
T1 sequence (P35396 whole entry): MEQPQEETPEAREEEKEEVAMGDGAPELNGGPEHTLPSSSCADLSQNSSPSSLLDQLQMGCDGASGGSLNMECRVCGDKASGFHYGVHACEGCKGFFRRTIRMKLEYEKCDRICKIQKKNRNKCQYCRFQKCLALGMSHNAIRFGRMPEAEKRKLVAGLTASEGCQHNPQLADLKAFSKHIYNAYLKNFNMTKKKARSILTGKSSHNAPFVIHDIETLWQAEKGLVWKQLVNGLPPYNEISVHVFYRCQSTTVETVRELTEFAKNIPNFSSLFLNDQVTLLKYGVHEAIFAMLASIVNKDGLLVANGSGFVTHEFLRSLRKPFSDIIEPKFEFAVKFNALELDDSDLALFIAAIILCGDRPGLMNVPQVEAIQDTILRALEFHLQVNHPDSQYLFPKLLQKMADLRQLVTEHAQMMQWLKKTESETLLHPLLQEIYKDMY
Put plainly: Agonist activity at mouse PPARdelta expressed in african green monkey CV1 cells by Gal4 transactivation assay. Format: functional, cell-based, CV-1.

In data set [2] the target is T2, Peroxisome proliferator-activated receptor alpha (Homo sapiens, UniProt Q07869).
T2 sequence (Q07869 whole entry): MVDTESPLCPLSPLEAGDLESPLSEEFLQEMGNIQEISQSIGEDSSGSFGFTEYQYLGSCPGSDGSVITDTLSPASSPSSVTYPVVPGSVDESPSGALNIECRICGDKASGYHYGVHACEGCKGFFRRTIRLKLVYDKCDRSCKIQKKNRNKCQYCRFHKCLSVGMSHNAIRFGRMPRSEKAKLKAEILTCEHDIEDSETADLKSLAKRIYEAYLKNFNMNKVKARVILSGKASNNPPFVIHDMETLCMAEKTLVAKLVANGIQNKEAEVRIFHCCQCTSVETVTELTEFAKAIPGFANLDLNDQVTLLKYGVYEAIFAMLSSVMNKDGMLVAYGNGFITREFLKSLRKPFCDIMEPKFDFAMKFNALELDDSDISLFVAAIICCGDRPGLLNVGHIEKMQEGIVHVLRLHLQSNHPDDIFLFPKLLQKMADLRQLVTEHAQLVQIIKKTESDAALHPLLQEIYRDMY
Nature of the data set: Agonist activity at human PPARalpha expressed in african green monkey CV1 cells by Gal4 transactivation assay. Format: functional, cell-based, CV-1.

Data set [3] concerns the target T3, Peroxisome proliferator-activated receptor alpha (Mus musculus, UniProt P23204).
T3 sequence (P23204 whole entry): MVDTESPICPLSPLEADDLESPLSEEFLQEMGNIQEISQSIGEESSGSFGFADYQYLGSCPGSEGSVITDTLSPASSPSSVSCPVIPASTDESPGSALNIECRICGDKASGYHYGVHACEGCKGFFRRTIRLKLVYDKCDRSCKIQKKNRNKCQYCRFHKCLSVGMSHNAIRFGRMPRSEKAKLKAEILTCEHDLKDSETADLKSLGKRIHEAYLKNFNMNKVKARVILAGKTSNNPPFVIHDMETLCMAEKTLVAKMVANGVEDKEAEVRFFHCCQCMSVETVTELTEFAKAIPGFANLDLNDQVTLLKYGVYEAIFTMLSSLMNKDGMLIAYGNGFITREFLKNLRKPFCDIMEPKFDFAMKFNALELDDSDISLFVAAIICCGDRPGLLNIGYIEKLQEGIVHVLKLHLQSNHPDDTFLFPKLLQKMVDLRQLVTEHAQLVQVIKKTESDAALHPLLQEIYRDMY
Nature of the data set: Agonist activity at mouse PPARalpha expressed in african green monkey CV1 cells by Gal4 transactivation assay. Type of data set: functional, cell-based, CV-1.

The target of data set [4] is T2, Peroxisome proliferator-activated receptor alpha. Nature of the data set: Displacement of radiolabeled GW-2433 from human PPARalpha ligand binding domain expressed in Escherichia coli.
In data set [5] the target is T4, Peroxisome proliferator-activated receptor delta (Homo sapiens, UniProt Q03181).
T4 sequence (Q03181 whole entry): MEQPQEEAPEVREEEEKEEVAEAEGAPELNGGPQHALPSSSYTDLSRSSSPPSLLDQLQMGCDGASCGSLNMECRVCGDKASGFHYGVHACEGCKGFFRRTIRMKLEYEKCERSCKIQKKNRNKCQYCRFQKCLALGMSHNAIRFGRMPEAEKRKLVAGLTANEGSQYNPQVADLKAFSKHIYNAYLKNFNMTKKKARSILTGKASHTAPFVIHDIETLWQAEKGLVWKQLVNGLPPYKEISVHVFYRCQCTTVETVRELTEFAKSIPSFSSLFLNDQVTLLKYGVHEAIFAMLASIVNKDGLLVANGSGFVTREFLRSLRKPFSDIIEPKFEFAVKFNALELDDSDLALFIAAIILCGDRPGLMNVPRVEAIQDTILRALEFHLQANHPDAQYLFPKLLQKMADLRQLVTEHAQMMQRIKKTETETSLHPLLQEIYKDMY
Nature of the data set: Agonist activity at human PPARdelta expressed in african green monkey CV1 cells by Gal4 transactivation assay. Type of data set: functional, cell-based, CV-1.

A short description of data set [6]: Volume of distribution at steady state in CD rat at 1 mg/kg, iv and 5 mg/kg, po. Format: ADME, organism-based. Conditions: in vivo, read-out: Vdss.
A short description of data set [7]: Cmax in CD rat at 1 mg/kg, iv and 5 mg/kg, po. Type of data set: ADME, organism-based. Conditions: in vivo.
The subject of data set [8] is Rattus norvegicus. Nature of the data set: Antidiabetic activity in Zucker fa/fa rat assessed as reduction in hematocrit level in at 40 mg/kg, po twice a day for 5 days. Format: functional. The arrangement: scale not given: the % may be the effect or the level left.
Data set [9] in a line: AUC in CD rat at 5 mg/kg, po. Type of data set: ADME, organism-based. The arrangement: dose 5 mg/kg, route oral. Conditions: plasma.
The nature of data set [10]: Half life in CD rat at 1 mg/kg, iv and 5 mg/kg, po. Format: ADME, organism-based. Conditions: in vivo.
Data set [11] has as its system Rattus norvegicus. Nature of the data set: Antidiabetic activity in Zucker fa/fa rat assessed as reduction in plasma glucose level in at 40 mg/kg, po twice a day for 5 days. Type of data set: functional. The arrangement: scale not given: the % may be the effect or the level left.
The target of data set [12] is T4, Peroxisome proliferator-activated receptor delta. Nature of the data set: Displacement of radiolabeled GW-2433 from human PPARdelta ligand binding domain expressed in Escherichia coli.
Data set [13] can be described thus: Clearance in CD rat at 1 mg/kg, iv and 5 mg/kg, po. Type of data set: ADME, organism-based. Particulars: in vivo.
For data set [14], the target named is T5, Peroxisome proliferator-activated receptor gamma (Mus musculus, UniProt P37238).
T5 sequence (P37238 whole entry): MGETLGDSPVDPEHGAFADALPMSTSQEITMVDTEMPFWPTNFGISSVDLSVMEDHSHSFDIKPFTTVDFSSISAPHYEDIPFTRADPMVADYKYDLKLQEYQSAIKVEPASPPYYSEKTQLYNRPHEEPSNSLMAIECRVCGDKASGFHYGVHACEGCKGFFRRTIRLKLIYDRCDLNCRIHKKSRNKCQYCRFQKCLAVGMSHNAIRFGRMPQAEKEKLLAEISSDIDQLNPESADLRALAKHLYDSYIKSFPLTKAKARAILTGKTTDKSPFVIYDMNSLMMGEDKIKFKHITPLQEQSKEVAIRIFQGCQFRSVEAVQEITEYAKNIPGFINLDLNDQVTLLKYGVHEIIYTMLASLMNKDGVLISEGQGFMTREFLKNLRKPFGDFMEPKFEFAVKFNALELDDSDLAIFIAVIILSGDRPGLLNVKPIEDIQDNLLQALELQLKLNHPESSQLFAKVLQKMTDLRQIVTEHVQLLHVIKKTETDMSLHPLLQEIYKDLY
Put plainly: Agonist activity at mouse PPARgamma expressed in african green monkey CV1 cells by Gal4 transactivation assay. Format: functional, cell-based, CV-1.

The nature of data set [15]: AUC in Zucker fa/fa rat at 5 mg/kg, po. Type of data set: ADME, organism-based. The arrangement: dose 5 mg/kg, route oral. Conditions: plasma.
A short description of data set [16]: Oral bioavailability in CD rat at 1 mg/kg, iv. Format: ADME, organism-based. Particulars: in vivo.
In data set [17] the target is T6, Peroxisome proliferator-activated receptor alpha (Mus musculus) (UniProt P23204).
T6 sequence (whole entry): T3 sequence (P23204 whole entry)
Put plainly: Agonist activity at mouse PPARalpha expressed in african green monkey CV1 cells by Gal4 transactivation assay relative to SW516. Type of data set: functional, cell-based. Particulars: CV-1.

Data set [18] deals with Rattus norvegicus. Put plainly: Antidiabetic activity in Zucker fa/fa rat assessed as reduction in triglyceride level in at 40 mg/kg, po twice a day for 5 days. Type of data set: functional. The arrangement: scale not given: the % may be the effect or the level left.

With `CCC(NC(=O)c1ccc2c(c1)c(C)c(C)n2Cc1ccc(-c2ccccc2C(=O)O)cc1)c1ccccc1` (stereo not drawn), the EC50 in data set [1] was greater than 10 µM; in data set [2], greater than 10 µM; in data set [3], 5.51 µM; in data set [5], greater than 10 µM; in data set [14], 0.002 µM. Moreover, the half-inhibitory concentration (IC50) in data set [4] and in [12] was greater than 10 µM in each case. In addition, in data set [6], the Vd was 17 L/kg. For the same compound, the concentration in data set [7] peaked (Cmax) at 319 ng/mL. Moreover, the Activity was greater than 10% in the data set with Rattus norvegicus [8], 25% in the data set with Rattus norvegicus [11], 79% in [17] and 49% in the data set on Rattus norvegicus [18]. In addition, the AUC in data set [9] was 1150 ng·h/mL; in [15], 1330 ng·h/mL. Besides, the half-life in data set [10] is 4.58 h. The clearance in data set [13] stood at 40 mL/min/kg. In addition, in data set [16], the bioavailability stood at 52%.
